≈ marks a conversion by molar mass, not a printed value.
settings: buffer; pH 7.4; 200.0 µM

Row | Compound | solubility kinetic [µg/mL]
1 | O=C1CSC(c2ccccc2)N1c1ccc([N+](=O)[O-])cc1 (stereo unspecified) | 33.4 (≈ 111 µM)
2 | CCS(=O)(=O)c1ccc(O)c(NC(=O)/C=C/c2ccccc2)c1 | > 49.7
3 | CN1CCN(C(=O)/C(=C\c2cccs2)NC(=O)c2ccccc2)CC1 | > 53.3
4 | COc1cc(S(=O)(=O)N2CCN(Cc3ccc4c(c3)OCO4)CC2)ccc1NC(C)=O.Cl | 10.5
5 | CCN1CCN(C(=O)C(=O)c2c(C)[nH]c3ccccc23)CC1 | 36.1 (≈ 121 µM)
6 | Cc1csc(SCC(=O)Nc2ccc(C)c(F)c2)n1 | > 44.5
7 | Cn1nccc1C(=O)NC1CCN(Cc2ccccc2)CC1 | > 44.8
8 | O=C(c1ccccc1)c1cccc[n+]1[O-] | > 29.9
9 | CCC(=O)c1c(NC(C)C)cc(C)oc1=O | > 33.5
10 | Brc1ccc(CNCC2CCCO2)cc1 (stereo unspecified) | 33.9 (≈ 125 µM)
11 | COc1ccc(C(=O)NC(=O)COC(=O)C2CC2C)cc1 (stereo unspecified) | 13.7 (≈ 47 µM)
12 | COCc1nc2oc3ccc(F)cc3c(=O)c2cc1C(=O)OC | 10.4 (≈ 32.8 µM)
13 | COc1cccc(C(=O)NCC(=O)OCC(=O)NC2CCCCC2)c1 | > 52.3
14 | Cc1nc2c(c(=O)c3ccccc3n2C)c(=O)n1-c1ccccc1 | 46.2 (≈ 146 µM)
15 | CCC(=O)Nc1c(-c2ccccc2)c(=O)c2ccccc2n1C | 44.9 (≈ 147 µM)
16 | CCc1ccccc1OCC(=O)NCC1COc2ccccc2O1 (stereo unspecified) | 14.9 (≈ 45.5 µM)
17 | CCN(CC)C(=O)c1cc(-c2ccc3c(c2)OCO3)on1 | 20.8 (≈ 72.1 µM)
18 | CC(NC(=O)COC(=O)Cn1cc(C(F)(F)F)ccc1=O)c1ccccc1 (stereo unspecified) | > 57.3
19 | O=c1ccnc(SCCc2ccc([N+](=O)[O-])cc2)[nH]1 | 21.6 (≈ 77.9 µM)
20 | Cc1ccc(N2CCCC2=O)cc1S(=O)(=O)N1CCOCC1 | > 48.7
21 | COc1ccc(Oc2nc3c(c(=O)n(C)c(=O)n3C)n2C)cc1 | > 47.4
22 | COCCNC(=O)Cn1cc(/C=C(\C#N)C(=O)NC2CC2)c2ccccc21 | > 55

Row | Compound | solubility kinetic [µg/mL]
23 | NS(=O)(=O)c1ccc(O)c(NC(=O)c2ccc([N+](=O)[O-])o2)c1 | > 49.1
24 | COc1cc(OC)c(OC)cc1CN1CCSCC1 | 32.3 (≈ 114 µM)
25 | Cc1cc(NC(=O)COC(=O)c2cccc(O)c2)no1 | > 41.4
26 | Cc1ccc(CNc2ccc(N3CCOCC3)cc2)cc1 | > 42.4
27 | O=C(NC1CC1)c1ccc(-n2cccc2)cc1 | 17.4 (≈ 76.9 µM)
28 | O=C(OCc1c(F)cccc1Cl)c1cnc2ccccc2n1 | 1.8 (≈ 5.68 µM)
29 | COC(=O)c1cc(C(=O)NCC2CCCCC2)cc([N+](=O)[O-])c1 | 33.3 (≈ 104 µM)
30 | O=[N+]([O-])c1cccc2ncccc12 | 16.3 (≈ 93.6 µM)
31 | COc1ccccc1NC(=O)c1c[nH]c2ccccc12 | > 39.9
32 | COc1ccc(OC)c(C(O)C(C)N)c1.Cl (stereo unspecified) | > 37.2
33 | CC(=O)Oc1ccc2c(=O)oc(-c3ccccc3)nc2c1 | 3.1 (≈ 11 µM)
34 | CCCOc1ccc(Oc2nc(-c3ccncc3)nc3ccccc23)cc1 | < 0.3
35 | O=C(NC(=S)Nc1ccc2ncccc2c1)c1ccccc1 | 1.4 (≈ 4.55 µM)
36 | Cc1nc2ccc(NC(=O)c3cccs3)cc2s1 | 8.4 (≈ 30.6 µM)
37 | CC(=O)NC(=S)Nc1cc(C(=O)O)ccc1Cl | > 40.9
38 | Cc1ccc(NC2=CC(=O)CC(C)(C)C2)cc1Cl | 16.2 (≈ 61.4 µM)
39 | S=C(Nc1ccccc1)N1CCc2ccccc21 | 23.8 (≈ 93.6 µM)
40 | O=C(CCN1C(=O)C2CC=CCC2C1=O)Nc1nccs1 (stereo unspecified) | > 45.8
41 | CCOc1ccccc1NC(=O)COc1cccnc1[N+](=O)[O-] | 7.5 (≈ 23.6 µM)
42 | O=C(COc1ccc(C2SCCS2)cc1)Nc1ccc(Cl)cc1 | < 0.8
43 | O=C(COc1ccccc1)Nc1cc(Cl)ccc1Cl | < 0.6
44 | CC(C)NCC(=O)Nc1c2c(nc3ccccc13)CCC2.O=C(O)C(=O)O | > 56

Row | Compound | solubility kinetic [µg/mL]
45 | O=C(Nc1ccccc1)c1ccccc1C(=O)N1CCCCC1 | 42.6 (≈ 138 µM)
46 | CC1CCCCN1CCn1c(=S)[nH]c2cc3c(cc2c1=O)OCO3 (stereo unspecified) | > 52.1
47 | O=C(Nc1ccccc1Cl)c1ccc(-c2ccccn2)s1 | 0.8 (≈ 2.54 µM)
48 | CCOC(=O)c1csc(NC(=O)CN2CCCCC2)n1 | > 44.6
49 | CCC(CC)NC(=O)c1cccc(Oc2ccccc2)c1 | 5.2 (≈ 18.4 µM)
50 | Cc1ccccc1OCC(O)CN1CCCCC1.Cl (stereo unspecified) | > 42.9
51 | COc1ccc(NC(=O)N2C[C@@H]3C[C@@H](C2)c2cccc(=O)n2C3)cc1 | > 50.9
52 | O=c1c2ccccc2nc(-c2ccccc2)n1O | > 35.7
53 | Cc1ccc(C(=O)NCCCNC(=O)c2ccc(C)nc2)cc1 | > 46.7
54 | Cc1cc(=O)[nH]c2ccc(S(=O)(=O)N3CCOCC3)cc12 | 16 (≈ 51.9 µM)
55 | C=CCNC(=O)COc1ccc(S(=O)(=O)N2CCCC2)cc1 | > 48.7
56 | Cc1cccc(Nc2ccccc2C(=O)O)c1C | > 36.2
57 | Cc1cc2[nH]c(=O)c(=O)[nH]c2cc1S(=O)(=O)NCc1ccccc1 | > 51.8
58 | CCc1ccc(NC(=S)N2CCCC(C(F)(F)F)C2)cc1 (stereo unspecified) | 6.1 (≈ 19.3 µM)
59 | CCCCC(CC)C(=O)Nc1cc(=O)[nH]c2nc3ccccc3n12 (stereo unspecified) | 1.9 (≈ 5.82 µM)
60 | Cc1nc(Cl)c(C(=O)Nc2cccc(F)c2)c(C)c1Cl | 4.9 (≈ 15.6 µM)
61 | CC(=O)c1sc(NC(=O)c2ccc(Cl)cc2)nc1C | 0.5 (≈ 1.7 µM)
62 | CC(=O)c1sc2nsc(SCCN3CCCCC3)c2c1N | 47.5 (≈ 139 µM)
63 | COc1ccc(CN(C(C)=O)c2ccccc2C(=O)O)cc1 | 43.7 (≈ 146 µM)
64 | CNc1ccc(Cl)nn1 | > 21.5
65 | OC(CNCc1ccc2c(c1)OCO2)COc1ccc(F)cc1 (stereo unspecified) | > 47.9
66 | COC(=O)c1cc(S(=O)(=O)N2CCCC2)c(Cl)cc1Cl | 41.8 (≈ 124 µM)

Row | Compound | solubility kinetic [µg/mL]
67 | COc1cc(CN=C(C)c2c(O)n(C3CCCCC3)c(=O)[nH]c2=O)cc(OC)c1 | < 0.3
68 | CC1CC(C)CN(CC(O)COCc2ccccc2)C1.Cl (stereo unspecified) | 46.9
69 | COC(=O)CN1C(=O)COc2ccc(S(=O)(=O)NCc3ccccc3)cc21 | 58.3 (≈ 149 µM)
70 | O=C(COC(=O)C1CC1)NCCc1ccccc1 | > 37.1
71 | COc1ccc(OC)c(/C=C/c2c([N+](=O)[O-])c(=O)n(C)c(=O)n2C)c1 | 3.4 (≈ 9.79 µM)
72 | CCOP(=O)(OCC)C(O)c1cccc([N+](=O)[O-])c1 (stereo unspecified) | 39.2 (≈ 136 µM)
73 | O=C(O)c1cc(Cl)c(Cl)cc1C(=O)NCc1ccco1 | > 47.1
74 | Cc1cc(=O)[nH]c(N2CCN(C(=O)c3ccco3)CC2)n1 | > 43.2
75 | CC1(C(=O)NNC(=S)NCC2CCCO2)CC1(Cl)Cl (stereo unspecified) | > 48.9
76 | Cc1ccc2nc(N3C(=O)CNC3=S)sc2c1 | 11.9 (≈ 45.2 µM)
77 | N#Cc1ccc(OCC(=O)NC2=NCCS2)cc1 | > 39.2
78 | COc1ccc2c(c1OC)C(=O)N(c1ccc(O)cc1)C2=O | 41.4 (≈ 138 µM)
79 | O=C(/C=C\c1ccc2c(c1)OCO2)CC1(O)C(=O)Nc2ccccc21 (stereo unspecified) | 24.6 (≈ 72.9 µM)
80 | CS(=O)(=O)N1CCN=C1SCc1ccccc1 | > 40.6
81 | COC1CC(C)NC(=S)N1 (stereo unspecified) | > 24
82 | Cc1ccc(NC(=O)CN(C)C(=O)c2ccc(NS(=O)(=O)c3cccc([N+](=O)[O-])c3)cc2)cc1 | 11.6 (≈ 24 µM)
83 | Clc1ccc(-c2nc3cc(CN4CCCCC4)ccc3o2)cc1 | 23.1 (≈ 70.7 µM)
84 | O=C(c1ccc2oc(CCc3ccccc3)nc2c1)N1CC[C@H](O)C1 | 41.1 (≈ 122 µM)
85 | Cc1ccc(S(=O)(=O)N2CCOCC2)cc1NC(=O)c1cc2ccccc2oc1=O | 1.1 (≈ 2.57 µM)
86 | COC(=O)c1cc2c(=O)c3ccccc3oc2nc1/C=C/N(C)C | 30.1 (≈ 92.8 µM)

From PubChem BioAssay AID1996
